Test results: PMC12150326 (The Journal of Organic Chemistry, 2025)
Read-outs that look alike come from different tables or passages of the source.

Columns and labels:
[1] = cited from earlier work
bovine brain tubulin = experiment: Tubulin polymerization inhibition; assay type: biochemical; conditions: 10 μM tubulin; for Polymerization Inhibition (%) 3.3 μM: 3.3 μM compound; for Polymerization Inhibition (%) 33 μM: 33 μM compound
Method: Inhibition of tubulin polymerization was determined as described previously. In brief, 10 μM bovine brain tubulin (PurSolutions, LLC (puresoluble.com)) was incubated under conditions strongly promoting polymerization of tubulin (1 M NaGlutamate, 0.1 M Mes (Morpholinoethanesulfonic acid), 1 mM MgCl2, 0.5 mM GTP, pH 6.9), in the absence or presence of 3.3 or 33 μM test compound, incubated for 30 min at 37 °C, then centrifuged at 100,000g for 8 min, and the top 3/4 of the supernatant removed. Protein concentration was measured, and polymerization was determined as pelletable protein lost from the supernatant.

[2] = target: colchicine site of bovine brain tubulin; assay type: binding; conditions: for Kd: tubulin binding constant, 25 °C, read-out: Kd
Method: Inhibition of this fluorescence increase was measured and converted to K d for the test compound as described.

A549 = experiment: Cell-growth inhibition (CellTiter); assay type: cell-based, human; conditions: Homo sapiens, A549, 72 h, read-out: Cell Growth Inhibition GI50 ± SE
Method: (§1) Inhibition of cell growth was determined by using standard procedures. Cell lines were obtained from the NCI anticancer drug screen and maintained in DMEM medium supplemented with 10% fetal bovine serum. Growing cells were exposed to serial dilutions of each compound for 3 days. Cell growth was determined with CellTiter Assay Reagent (Promega), and growth parameters, including inhibition of growth, were measured by using the methods specified by the manufacturer.

PC3 = experiment: Cell-growth inhibition (CellTiter); assay type: cell-based, human; conditions: Homo sapiens, PC-3, 72 h, read-out: Cell Growth Inhibition GI50 ± SE
Method: as §1

M14 = experiment: Cell-growth inhibition (CellTiter); assay type: cell-based, human; conditions: Homo sapiens, M14, 72 h, read-out: Cell Growth Inhibition GI50 ± SE
Method: as §1

[3] = Experimental rotational energy barrier (thermal racemization, chiral HPLC); assay type: physicochemical
Method: (aR)-6 and (aS)-6 were readily separable from one another and racemic iso -6 through the use of a polysaccharide-based chiral column (Diacel IA column) fitted to an automated medium-pressure liquid chromatography unit (Biotage Isolera Prime). Racemization was observable after heating a solution of either enantiopure (aR)- or (aS)-6 at 135 °C in xylenes over a few hours, and the rate of enantiomerization was extrapolated using the Eyring equation (ΔG ^‡ = 31.2 ± 0.3 kcal/mol). (aR)- and (aS )-iso-6 were separable in an analogous fashion using a chiral IC polysaccharide column. […] Thus, we can project that the rotational energy barrier is […] 37 kcal/mol. However, a computationally determined rotational barrier for iso -6 was 33.5 kcal/mol, which is roughly 3 kcal/mol more than that calculated for 6. One potential explanation for this notable difference in configurational stability is the greater double bond character of the methyl-bearing C^4–C^5 carbon of iso -6 in comparison to the C^5–C^6 in 6, as this would both shorten and rigidify this steric-bearing bond (see Scheme A/B for details). […] Studies have previously described differences in rotational barriers of DAAC (2) and its analogous isomer that, while less dramatic, are consistent with this trend (ΔG ^‡ = 22.1 vs 23.4 kcal/mol). […]
IV. Experimental Profiling of Dihedral Angles
Rotational Energy Barrier Determination. A small spatula tip (~0.2 mg) of either (aR)-6 (aka, (aR)-MT-MTC) or (aS)-6 (aka, (aS)-MT-MTC) was diluted in 2 mL o-xylenes in a large vial containing a stir bar. The solution was heated to 135 °C open to air (temperature set to 135 °C, but fluxuated between 134 and 138 °C).
~100 µL aliquots were extracted from solution using a syringe fitted with a long disposable needle at various time intervals and diluted into automated sample vials containing 500 µL CH2Cl2 to rapidly cool. These samples were monitored on Agilent with an analytical HPLC IA column, using 0 – 40% iPrOH in Hexanes gradient over 30 minutes at a flow rate of 0.5 mL/min, and a pressure of roughly 5 bar). Samples eluted approximately 20 minutes into run, with (aR)-6 eluting first, followed by (aS)-6. Three separate runs were carried out, two of which monitored racemization of (aS)-6, and one of which monitored racemization of (aR)- […]
Integration of the HPLC traces were used to determine enantiomeric excess by calculating the difference between the two enantiomers and dividing that by the sum of the two enantiomers, and then multiplying that […]
provided a slope (corresponding to kracemization), and dividing this number […] providing kenantiomerization (or kent in equation below), with units inverse seconds. A summary of data follows (Table S5), and representative chromatograms illustrated in section VI.

Row | Compound | Polymerization Inhibition (%) 3.3 μM (bovine brain tubulin) | Polymerization Inhibition (%) 33 μM (bovine brain tubulin) | Kd [2] | GI50 (A549; A549, 3 days) | GI50 (PC3; PC3, 3 days) | GI50 (M14; M14, 3 days) | also measured
1 | COc1cc2c(c(OC)c1OC)-c1ccc(OC)c(=O)cc1CCC2 [compound 2, desacetamidocolchicine] |  |  |  |  |  |  | ΔG‡ exp, rotational barrier [1]: 22.1 kcal/mol; t1/2 rt of racemization ([1]; room temperature ref 19): ~ 0.5 h
2 | COc1ccc(-c2ccc(OC)c(=O)cc2)c(OC)c1OC [compound 3, 2-methoxy-5-(2,3,4-trimethoxyphenyl)-2,4,6-cycloheptatrien-1-one, reference compound] | 100% | 100% | 3200 nM |  |  |  | GI50 (A549): 30 ± 1 nM; GI50 (PC3): 30 ± 5 nM; GI50 (M14): 30 ± 7 nM
3 | COc1ccc(-c2ccc(OC)c(=O)cc2C)c(OC)c1OC [compound 4, 2-Methoxy-6-methyl-5-(2,3,4-trimethoxyphenyl)cyclohepta-2,4,6-trien-1-one] | 0% | 100% | 20000 nM | 300 ± 10 nM | 190 ± 60 nM | 250 ± 25 nM | binding constant fold less potent than 3 [2]: 5–30 fold
4 | COc1cc(C)c(-c2ccc(OC)c(=O)cc2)c(OC)c1OC [compound 5, 2-Methoxy-5-(2,3,4-trimethoxy-6-methylphenyl)cyclohepta-2,4,6-trien-1-one] | 0% | 100% | 14000 nM | 300 ± 10 nM | 220 ± 40 nM | 300 ± 10 nM | binding constant fold less potent than 3 [2]: 5–30 fold
5 | COc1cc(C)c(-c2ccc(OC)c(=O)cc2C)c(OC)c1OC [compound 6, 2-Methoxy-6-methyl-5-(2,3,4-trimethoxy-6-methylphenyl)cyclohepta-2,4,6-trien-1-one] |  |  |  |  |  |  | ΔG‡ of enantiomerization, experimental ([3]; 135 °C in xylenes, Eyring equation): 31.2 ± 0.3 kcal/mol
6 | COc1ccc(-c2ccc(=O)c(OC)cc2C)c(OC)c1OC [iso-4] | 0% | 0% | 230000 nM | > 3000 nM | > 3000 nM | > 3000 nM | 
7 | COc1cc(C)c(-c2ccc(=O)c(OC)cc2C)c(OC)c1OC [iso-6, 2-Methoxy-4-methyl-5-(2,3,4-trimethoxy-6-methylphenyl)cyclohepta-2,4,6-trien-1-one] |  |  |  |  |  |  | racemization on heating ([3]; 145 °C for 10 h): no racemization was observed; projected rotational energy barrier ([3]; from absence of racemization at 145 °C, 10 h): 37 kcal/mol
